Data on three molecules can be found in patent US7858788B2, “Bicyclic carbamoylpyridone derivative having HIV integrase inhibitory activity” (Shionogi & Co., Ltd., priority 2005, dated 2010).

The assay deals with HIV integrase (Human immunodeficiency virus type 1 group M subtype B, UniProt P04585). Briefly: HIV integrase inhibitory activity assay (immunoplate, substrate DNA / target DNA, OD405). Type of assay: biochemical. To be noted: read-out: Integrase inhibitory activity (IC50, ng/ml) (converted). As to the method: The HIV integrase inhibitory activity was investigated based on the following assay method.
(1) Preparation of DNA Solution
By the same method as that described in Experimental Example 1 of WO 2004/024693, a substrate DNA solution (2 pmol/ml) and a target DNA solution (5 pmol/ml) were prepared. […] Each sequence of a substrate DNA and a target DNA is as described in the same Experimental Example.
(2) Measurement of Inhibition Rate (IC50 Value)
Streptavidin (manufactured by Vector Laboratories) was dissolved in a 0.1M carbonate buffer solution (composition: 90 mM Na2CO3, 10 mM NaHCO3) to a concentration of 40 μg/ml. Each […] of this solution was added to a well of an immunoplate (manufactured by NUNC), and this is allowed to stand at 4° C. overnight to adsorb. Then, each well was washed with a phosphate buffer (composition: 13.7 mM NaCl, 0.27 mM KCl, 0.43 mM Na2HPO4, 0.14 mM KH2PO4) two times, and […] of a phosphate buffer containing 1% skim milk was added to block it for 30 minutes. Further, each well was washed with a phosphate buffer two times, […] of a substrate DNA solution (2 pmol/ml) was added to adsorb at room temperature for 30 minutes while shaking, and this was washed with a phosphate buffer two times and, then, distilled water once.
Then, to each well prepared as described above were added 12 ml of a buffer (composition: 150 mM MOPS (pH7.2), 75 mM MnCl2, 50 mM 2-mercaptoethanol, 25% glycerol, 500 μg/ml bovine serum albumin-fraction V), and 51 ml of a reaction solution prepared from […] of distilled water. Then, 9 ml of an integrase solution (30 pmol) was added, and the mixture was mixed well. To a well as a negative control (NC) was added 9 ml of a diluting solution (composition: 20 mM MOPS (pH7.2), 400 mM potassium glutamete, 1 mM EDTA, 0.1% NP-40, 20% glycerol, 1 mM DTT, 4 M urea), and this was mixed well using a plate mixer. […]
C abs.; absorbance of well of compound
NC abs.: absorbance of NC
PC abs.: absorbance of PC

On to `O=C(NCc1ccc(F)cc1)c1cn2ccn(Cc3ccc(F)cc3)c(=O)c2c(O)c1=O` [Example A-30, 2-(4-Fluorobenzyl)-9-hydroxy-1,8-dioxo-1,8-dihydro-2H-pyrid[1,2-a]pyrazine-7-carboxylic acid 4-fluoro-benzylamide], for which the IC50 is 2.29 nM.

With `COCCN1CC(O)n2cc(C(=O)NCc3ccc(F)cc3)c(=O)c(O)c2C1=O` [Example D-41, 4,9-Dihydroxy-2-(2-methoxy-ethyl)-1,8-dioxo-1,3,4,8-tetrahydro-2H-pyrid[1,2-a]pyrazine-7-carboxylic acid 4-fluoro-benzylamide], the IC50 was 7.89 nM.

`COCCN1C(=O)c2c(O)c(=O)c(C(=O)NCc3ccc(F)cc3COC)cn2CC1O` (stereo not drawn) [Example E-1, 3,9-Dihydroxy-2-(2-methoxy-ethyl)-1,8-dioxo-1,3,4,8-tetrahydro-2H-pyrid[1,2-a]pyrazine-7-carboxylic acid 4-fluoro-2-methoxymethyl-benzylamide]: the IC50 was 11.1 nM.
